The assay has as its system Aedes aegypti mosquitoes. Nature of the assay: Arm-in-cage testing of protective efficacy. Format: in vivo. As to the method:
Additional testing was performed with the lotion of example 3 including sunflower oil, isopropyl alcohol, peppermint oil, citronella oil, zinc oxide, water and turmeric oil with the following protocols. Aedes aegypti mosquitoes were obtained from insecticide-susceptible reference strains held at the London School of Hygiene & Tropical Medicine, UK. All mosquitoes are reared and housed under optimal environmental conditions of 25° C.±2° C. and 80% Relative Humidity with a 12:12 hour photoperiod. Testing was carried out in a testing room maintained at […] with a 12:12 hour photoperiod. For each product, the same person carried out the arm-in-cage testing.
For each product test, three batches of 50 female mosquitoes were placed in cages inside the testing room. Before the start of each test a bare arm with gloved hand was inserted into the cage for 30 seconds to assess the biting readiness of the mosquitoes. […] The number of mosquitoes probing the untreated arm was counted at the end of the 30 second test.
Following the combined fitness/control test, the product was applied onto the right arm at the WHO standard rate of 1 ml per 600 cm 2 […] for DEET, and at a rate of 2 mg per cm′ for the Sunscreen Repellent. The arm was then inserted into the cage for 30 seconds and the number of mosquitoes probing on the arm counted and recorded. […]

SMILES strings stand for the structures.

Regarding `CCN(CC)C(=O)c1cccc(C)c1` [8% DEET], where the note is “time after application with 50% protection”, the “50% protective efficacy time” value came to 6 h. Besides, for the setting “time after application with 100% protection”, the “complete (100%) protective efficacy time” value turned out to be 1 h.

(Values after patent US12648559B2, “Topical mosquito control product with sunscreen” (Pouch Pac Innovations, LLC, priority 2016, dated 2026).)
